Test results: patent publication US20080064702A1, “Use of folates for the prevention and treatment of vascular diseases” (priority 2006, published 2008)
“Also recorded” adds a separate entry of the source. Where two headings read alike, the source gives them in different places.

How the values were obtained:
[1] = Peroxynitrite scavenging assay, SIN-1 system with luminol; assay type: biochemical; conditions: SIN-1 1 μM; for direct peroxynitrite scavenging effect: concentrations as low as 1 μM, 5-MTHF and uric acid at equal concentrations
Procedure: Superoxide and Peroxynitrite Scavenging Assays. The direct superoxide scavenging effect of 5-MTHF was evaluated with the use of xanthine/xanthine oxidase system. […] The scavenging effects of 5-MTHF, vitamin C or uric acid were calculated as the percent inhibition of chemiluminescence compared with control.

[2] = SV, 45 min
Procedure: Plasma and tissue levels of 5-MTHF were determined by high performance liquid chromatography (HPLC), as previously described (Leeming R J et al, Metabolism. 1990; 39:902).

[3] = 0.13 mg/kg i.v.; for plasma concentration: preliminary studies
Procedure: (§4) Patients (n=56) undergoing CABG participated in a double-blind placebo controlled study, where they received an intravenous infusion of either 5-MTHF (Merck Eprova, Switzerland) or placebo, administered before the CABG. […] Samples 5 of SV and IMA were harvested ˜45 minutes after the infusion of 5-MTHF (mean time of harvesting 45.7±2.9 minutes after infusion), and assayed for NO-mediated vasomotor function, vascular superoxide production, tissue 5-MTHF and biopterin levels, as described below.
(§5) Blood samples were collected prior to administration of 5-MTHF or placebo, and at the time of vessel harvesting. […] Plasma and tissue levels of 5-MTHF were determined by high performance liquid chromatography (HPLC), as previously described (Leeming R J et al, Metabolism. 1990; 39:902).

eNOS = eNOS (Homo sapiens, UniProt P29474); conditions: IMA, 5-MTHF 1 μM for 45 minutes; paired control 0.14±0.02%/g
Chain of eNOS (P29474 2-1203 limits assumed): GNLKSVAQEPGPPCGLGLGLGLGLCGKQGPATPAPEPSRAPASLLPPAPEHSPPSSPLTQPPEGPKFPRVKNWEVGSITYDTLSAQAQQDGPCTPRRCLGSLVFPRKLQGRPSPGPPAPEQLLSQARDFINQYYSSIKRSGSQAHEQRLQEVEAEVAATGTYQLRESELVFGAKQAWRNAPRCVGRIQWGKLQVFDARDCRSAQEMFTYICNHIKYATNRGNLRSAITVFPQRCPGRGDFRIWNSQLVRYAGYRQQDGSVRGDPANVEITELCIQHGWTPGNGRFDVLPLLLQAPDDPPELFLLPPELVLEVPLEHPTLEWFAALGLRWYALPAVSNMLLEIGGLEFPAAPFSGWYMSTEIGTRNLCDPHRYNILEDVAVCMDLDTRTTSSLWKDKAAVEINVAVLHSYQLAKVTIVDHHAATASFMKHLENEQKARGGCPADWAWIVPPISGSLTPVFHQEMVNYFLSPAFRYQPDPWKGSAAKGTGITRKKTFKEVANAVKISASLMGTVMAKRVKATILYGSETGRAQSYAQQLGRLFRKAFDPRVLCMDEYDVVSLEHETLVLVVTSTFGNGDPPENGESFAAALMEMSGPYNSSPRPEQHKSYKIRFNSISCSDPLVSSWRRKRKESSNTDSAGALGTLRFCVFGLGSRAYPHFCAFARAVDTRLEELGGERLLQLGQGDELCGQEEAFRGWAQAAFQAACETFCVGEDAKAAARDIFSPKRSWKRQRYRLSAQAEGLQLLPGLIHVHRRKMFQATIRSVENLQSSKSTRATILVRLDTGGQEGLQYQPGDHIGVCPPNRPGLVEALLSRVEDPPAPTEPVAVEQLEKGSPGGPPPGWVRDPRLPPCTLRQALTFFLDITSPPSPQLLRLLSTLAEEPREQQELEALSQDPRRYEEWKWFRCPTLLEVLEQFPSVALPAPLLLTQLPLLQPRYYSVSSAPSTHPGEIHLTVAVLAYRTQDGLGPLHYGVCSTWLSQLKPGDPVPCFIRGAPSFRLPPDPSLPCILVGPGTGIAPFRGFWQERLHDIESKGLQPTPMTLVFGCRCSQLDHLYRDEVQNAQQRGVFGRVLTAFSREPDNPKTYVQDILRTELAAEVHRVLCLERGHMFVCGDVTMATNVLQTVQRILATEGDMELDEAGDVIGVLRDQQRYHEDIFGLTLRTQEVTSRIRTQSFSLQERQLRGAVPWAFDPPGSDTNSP
Procedure: (§1) Vessel Harvesting and Ex Vivo Studies. Samples of SV (n=38) and IMA (n=46) from a total of 61 patients, were harvested during CABG operation, as previously described (Channon K M, Trends Cardiovasc Med 2004; 14:323-327; Guzik T J et al., Circulation 2002; 105:1656-1662). Vessel segments were transferred to the laboratory within 30 minutes, in ice cold Krebs-Henseleit buffer. Segments of SV and IMA were incubated with 5-MTHF (0-100 μM) in Krebs-Henseleit buffer for 45 minutes prior to assays of endothelial function, superoxide/peroxynitrite production, radio-labelled arginine/citrulline conversion, western blotting or tissue 5-MTHF and biopterin levels.

saphenous veins [4] = test system: saphenous veins
Procedure: as §1
(§2) Vasomotor Studies. Endothelium-dependent and endothelium-independent dilatation were assessed using isometric tension studies, as previously described (Guzik T J et al, Circ Res. 2000; 86:e85). Vessel rings were equilibrated and passively pre-tensioned to 3 g, an optimal resting tension that was determined in baseline studies of contractile response to KCl. Following precontraction with phenylephrine (3×10^−6M), vasomotor responses to the endothelium-mediated agonists acetylcholine (ACh, 10^−9M to 10^−5M) and bradykinin (BK, 10^−9 M to 10^−5M), were quantified in 4 equally sized segments from the same vessel. In the ex vivo experiments, vasomotor responses were repeated after incubation for 45 minutes with 0 (control), 1, 10 or 100 μM 5-MTHF, added to the organ bath chambers. Finally, relaxations to the NO donor sodium nitroprusside (SNP, 10^−10M to 10^−6M), were evaluated in the presence of the NOS inhibitor NG-nitro-L-arginine methyl ester (L-NAME; 100 μM).

[5] = 45 minutes after infusion of 5-MTHF; from 11.0±0.62 before
Text: (§3) In Vivo Studies. Patients (n=56) undergoing CABG participated in a double-blind placebo controlled study, where they received an intravenous infusion of either 5-MTHF (Merck Eprova, Switzerland) or placebo, administered before the CABG.

[6] = test system: saphenous veins and internal mammary arteries; conditions: SV and IMA, higher 5-MTHF concentrations (10, 100 μM) compared with 1 μM
Procedure: as §1
Superoxide/Peroxynitrite Measurements. Vascular superoxide production was measured from fresh human vessels using lucigenin (5 μM)-enhanced chemiluminescence as previously described (Skatchkov M P et al, Biochem Biophys Res Commun. 1999; 254:319). […] NOS-derived superoxide was measured by adding L-NAME (100 μM) in the equilibrating buffer, and by calculating the difference in superoxide signal compared with basal conditions. Vascular peroxynitrite was determined using luminol (100 μM) instead of lucigenin, and by subtracting the remaining signal after adding the specific peroxynitrite scavenger uric acid (1 mM), as previously described (Laursen J B et al, Circulation. 2001; 103:1282).

[7] = test system: saphenous veins and internal mammary arteries; conditions: ca. 45 min after 0.13 mg/kg i.v., vs placebo
Procedure: as §3
Superoxide/Peroxynitrite Measurements. Vascular superoxide production was measured from fresh human vessels using lucigenin (5 μM)-enhanced chemiluminescence as previously described (Skatchkov M P et al, Biochem Biophys Res Commun. 1999; 254:319). Samples of SV and IMA from the same patient were opened longitudinally to expose the endothelial surface and then equilibrated for 20 minutes in oxygenated (95% O2/5% CO2) Krebs-HEPES buffer (2 mL, pH=7.4) at 37° C. […]. NOS-derived superoxide was measured by adding L-NAME (100 μM) in the equilibrating buffer, and by calculating the difference in superoxide signal compared with basal conditions. Vascular peroxynitrite was determined using luminol (100 μM) instead of lucigenin, and by subtracting the remaining signal after adding the specific peroxynitrite scavenger uric acid (1 mM), as previously described (Laursen J B et al, Circulation. 2001; 103:1282).

[8] = test system: saphenous veins and internal mammary arteries; conditions: IMA, 45 min ex vivo with 1 μM 5-MTHF, vs control
Procedure: as §1
Determination of Biopterin Levels. Biopterin levels in human vessels were determined by HPLC, as previously described (Alp N J et al, J Clin Invest. 2003; 112:725) and expressed as pmol/g of tissue. To examine the effect of 5-MTHF on peroxynitrite-induced oxidation of BH4, SIN-1 (2 μM) was used to oxidize BH4 (0.1 μM) in the presence or absence of 5-MTHF (1 μM) at 37° C. for 14 minutes (Milstien S and Katusic Z. Biochem Biophys Res Commun. 1999; 263:681).

[9] = Superoxide scavenging assay, xanthine/xanthine oxidase system; assay type: biochemical
Procedure: Superoxide and Peroxynitrite Scavenging Assays. The direct superoxide scavenging effect of 5-MTHF was evaluated with the use of xanthine/xanthine oxidase system. Superoxide production was induced by adding xanthine oxidase ([…]/mL) in Krebs HEPES buffer (2 mL, pH=7.4) at 37° C., containing xanthine (0.133 mM) and lucigenin (5 μM), in the presence of 5-MTHF (0-100 μM) or equal concentrations of ascorbic acid as positive control. Peroxynitrite production was induced by adding 3-morpholinosydnonimine (SIN-1, 1 μM) in Krebs HEPES buffer (2 mL, pH=7.4) at 37° C. containing luminol (100 μM), in the presence of different concentrations of 5-MTHF (0-100 μM) or equal concentrations of uric acid as positive control as previously described (Kuzkaya N et al, J Biol Chem. 2003; 278:22546). The scavenging effects of 5-MTHF, vitamin C or uric acid were calculated as the percent inhibition of chemiluminescence compared with control.

[10] = ~45 min after 0.13 mg/kg i.v.
Procedure: as §4, §5

vascular endothelium = conditions: vessels from 5-MTHF-treated patients
Procedure: as §3
Oxidative Fluorescent Microtopography. In situ superoxide production was determined in vessel cryosections with the oxidative fluorescent dye dihydroethidium (DHE) (Bendall J K et al, Circ Res. 2005; 97:864). Paired cryosections ([…]) from the same vessel were incubated with DHE (2 μmol/L) in PBS, with or without L-NAME (100 μM). Fluorescence images (x40, Zeiss LSM 510 META laser 6 scanning confocal microscope) were obtained from each vessel quadrant, incorporating the luminal side of the vessel to quantify endothelial cell fluorescence. In each case, segments of vessel rings (with and without L-NAME) were analyzed in parallel with identical imaging parameters. DHE image analysis was carried out in a blinded fashion, and by two independent investigators, by using Image-Pro Plus software (Media Cybernetics).

saphenous veins [11] = test system: saphenous veins; remark: listed apart in the source
Procedure: as §3, §2

[12] = 5-MTHF 10 or 100 μM compared with 1 μM
[13] = SV segments ~45 min after 0.13 mg/kg i.v., vs placebo

CN1c2c(nc(N)[nH]c2=O)NCC1CNc1ccc(C(=O)N[C@@H](CCC(=O)O)C(=O)O)cc1 (stereo partly shown) [5-MTHF, 5-methyltetrahydrofolate]
direct peroxynitrite scavenging effect [1]: strong direct peroxynitrite scavenging effect; also recorded: potent scavenging effect | reduction of measurable peroxynitrite ([1]; at 1 μM): 75% | vascular 5-MTHF levels ([2]; incubation with 5-MTHF 1 μM, control 0.40±0.06): 3.40±0.71 nmol/g tissue | vascular 5-MTHF levels ([2]; incubation with 5-MTHF 10 μM): 21.3±8.10 nmol/g tissue | vascular 5-MTHF levels ([2]; incubation with 5-MTHF 100 μM): 57.2±18.9 nmol/g tissue | plasma concentration ([3]; 45 minutes after infusion): 1000 to 2000 nM | plasma 5-MTHF levels ([3]; at the time of vessel harvesting (~45 min), 5-MTHF-treated group): 2.28 ± 0.21 µM | plasma concentration ([3]; immediately after administration): 2000 to 3000 nM | citrulline production (conversion of radio-labelled arginine to citrulline) (eNOS): 0.20±0.03 %/g tissue | maximum relaxations to Ach (saphenous veins [4]; [12]): no further increase | maximum relaxations to BK (saphenous veins [4]; [12]): no further increase | vasomotor responses to the endothelium-independent agonist SNP (saphenous veins [4]; 5-MTHF-incubated vs control vessel segments, data not shown): no differences | absolute contractions in response to phenylephrine after incubation (saphenous veins [4]; baseline 7.9±0.8 g, after incubation): remained unchanged | plasma tHcy [5]: 9.42 ± 0.46 µmol/L | vascular peroxynitrite production [6]: no further reductions | vascular superoxide production [6]: no further reductions | vascular superoxide ([7]; IMA): significantly lower | vascular superoxide ([7]; SV): significantly lower | BH4/tBio ratio [8]: increased | vascular BH4 [8]: increased | effect on measurable superoxide ([9]; low concentrations (1-10 μM)): no detectable effect | superoxide scavenging effect ([9]; only at concentrations >10 μM (FIG. 5A)): weak superoxide scavenging effect | superoxide scavenging ([9]; very high concentrations (100 μM)): only modest superoxide scavenging | tissue 5-MTHF levels ([10]; IMA, placebo 1.54±0.38): 12.7 ± 2.58 nmol/g | tissue 5-MTHF levels ([10]; SV, placebo 1.19±0.25): 9.35 ± 1.72 nmol/g | DHE fluorescence in other regions of the vessel wall (vascular endothelium): unaffected | absolute pre-contractions to phenylephrine (saphenous veins [11]; 5-MTHF-treated group, placebo 7.72±1.31 g): 8.20 ± 1.26 g | vasomotor responses to acetylcholine (ACh) (saphenous veins [11]; [13]): significantly greater | vasomotor responses to bradykinin (BK) (saphenous veins [11]; [13]): significantly greater | maximal vasorelaxations to ACh (saphenous veins [11]; SV segments ~45 min after 0.13 mg/kg i.v., placebo 19.4±3.3%): 43.2±4.5% | maximal vasorelaxations to BK (saphenous veins [11]; SV segments ~45 min after 0.13 mg/kg i.v., placebo 37.1±3.7%): 51.4±4.2%

O=C1O[C@H]([C@@H](O)CO)C(O)=C1O [ascorbic acid, reference compound]
reduction of measurable superoxide ([9]; at 1 μM): 50% | superoxide scavenging effect ([9]; even at low concentrations (FIG. 5A)): expected scavenging effect

O=c1[nH]c(=O)c2[nH]c(=O)[nH]c2[nH]1 [uric acid, reference compound]
direct peroxynitrite scavenging effect [1]: comparable
